Read-outs that look alike come from different tables or passages of the source.
What was measured:
p53 = assay: Immunohistochemical detection of p53 in liver sections; format: in vivo, Rattus norvegicus; details: liver immunohistochemistry; oral, 21 days
Experimental: (§1) Adult male rats (n = 7 × 9 = 63), weighing 150–200 g, were randomized and divided into seven groups. Group I served as the control. Group II received the vehicle control (0.1 ml/100 g ethanol). Group III was treated with bromadiolone (B) at ½ LD₅₀ (0.8 mg/kg)[28]. Group IV received bromadiolone (0.8 mg/kg) + ciprofloxacin (Anti.20 mg/kg)[29]. Group V received bromadiolone (0.8 mg/kg) + ciprofloxacin (20 mg/kg) + vitamin D (Vit. D 35 mg/kg)[30]. Group VI received bromadiolone (0.8 mg/kg) + ciprofloxacin (20 mg/kg) + vitamin D (35 mg/kg) + cinnamon (Cin. 2 g/kg)[31]. Group VII received bromadiolone (0.8 mg/kg) + ciprofloxacin (20 mg/kg) + vitamin D (35 mg/kg) + aspirin (A. 150 mg/kg)[32]. All doses were administered orally to wild rats over 21 days. The chemical we used for the euthanizing process: rats were narcotized by Ketamine + xylazine injection (IP) and then sacrificed by slaughtering.
Using xylene, paraffin-embedded tissues were deparaffinized and then rehydrated through a graded series of ethanol solutions. Antigen retrieval was performed by boiling the slides in 1 mM EDTA. The sections were then incubated in 3% H2O2 for ten minutes, washed with wash buffer (1X PBS) for five minutes, and blocked for one hour at room temperature. A 1:1000 dilution of the p53 primary antibody was then applied. […]

[1] = tested on: male wild rats of Rattus norvegicus; format: in vivo; details: oral, 8 treated, one week
male wild rats = assay: Serum measurements (AST, ALT, Ca2+, RBCs, Hgb, PT); format: in vivo, Rattus norvegicus; details: oral, 21 days
Experimental: as §1
Determination of ionized calcium, RBC count, Hb, and prothrombin time (PT) was conducted at a private biochemical laboratory in Assiut, Egypt, using a Genuri KT-6400 automatic hematology analyzer (China). ALT and AST activities in blood plasma were measured using specific kits (Boehringer Mannheim, Mannheim, Germany) according to the manufacturer’s instructions. […]. The concentration of reduced glutathione (GSH) was estimated based on[37] and measured using spectrophotometry.

[2] = tested on: male wild rats of Rattus norvegicus; format: in vivo; details: oral; for Mortality% / Dead: one week; for Linear probit / Linear response %: probit fit; for Dead: 8 treated
Experimental: An approximate LD₅₀ was initially determined as a pilot study using the staircase method. Seventy adult male rats weighing 150–200 g were randomized and divided into ten groups (n = 10 × 7). Group I served as the control, while groups II, III, IV, V, VI, VII, VIII, IX, and X were treated orally with the following doses of bromadiolone, respectively: 0.3, 0.6, 0.9, 1.1, 1.2, 1.4, 1.8, 2.2, and 2.8 mg/kg b.w. The animals were observed during the first 2 h and then at 6 and 24 h for any toxic symptoms. Time to death and mortality were recorded over four days following administration. After one week, the LD₅₀ value was determined using probit analysis as described in[27].

p21 = assay: Western blot of liver tissue, p21; format: in vivo, Rattus norvegicus; details: Western blot normalized to β-actin, oral, 21 days
Experimental: as §1
For the immunodetection and quantification of proteins such as p21 and cleaved caspase-3, markers of apoptotic cell death under various treatments, liver tissue was homogenized using RIPA lysis buffer. The samples were chopped and briefly sonicated on ice, and protein concentration was measured. Proteins (20 µg) were separated using SDS-PAGE and transferred to a nitrocellulose membrane. […] The optical densities of the bands were quantified and normalized to β-actin (1:5000) using ImageJ software.

[3] = male wild rats, probit analysis software

Q: With `O=c1oc2ccccc2c(O)c1C(CC(O)c1ccc(-c2ccc(Br)cc2)cc1)c1ccccc1` (stereo not drawn) [Bromadiolone] as the molecule, how does the “increase in p53 levels compared to the control” value (p53) read?
A: The value was 60.74%.

Q: What about the “p53 immunoreactivity in liver sections” value (p53) of the same molecule?
A: Its value is “moderate brown immunoreactivity”.

Q: And the Dead ([1]; dose 0.3 mg/kg b.w.)?
A: Its Dead is 1.

Q: What about the Dead ([1]; dose 0.6 mg/kg b.w.) of the same molecule?
A: Its Dead is 2.

Q: And the Dead ([1]; dose 2.2 mg/kg b.w.)?
A: The Dead was 5.

Q: And the “Ca2+ serum, Mean ± SE” value (male wild rats; control 4.640 ± 0.2943)?
A: The value was 13.15 ± 0.9675 mg/dL.

Q: What about the “RBCs serum, Mean ± SE” value (male wild rats; control 11.08 ± 0.1956) of the same molecule?
A: Its value is 8.240 ± 0.5015 M/µl.

Q: What about the “Hgb serum, Mean ± SE” value (male wild rats; control 11.92 ± 0.3813) of the same molecule?
A: Its value is 11.4 ± 0.2358 g/dL.

Q: What about the “PT (prothrombin time) serum, Mean ± SE” value (male wild rats; control 21.25 ± 2.212) of the same molecule?
A: Its value is 37.43 ± 1.329 s.

Q: What about the “AST serum, Mean ± SE” value (male wild rats; control 92.37 ± 5.279) of the same molecule?
A: The value was 130.8 ± 8.149 U/L.

Q: And the “ALT serum, Mean ± SE” value (male wild rats; control 184.8 ± 4.632)?
A: Its value is 225.5 ± 1.679 U/L.

Q: And the Mortality% ([2]; dose 0.3 mg/kg b.w.)?
A: The Mortality% was 12.5%.

Q: And the Observed response % ([2]; dose 0.3 mg/kg b.w., probit analysis)?
A: The Observed response % was 14.286%.

Q: And the Linear probit ([2]; dose 0.3 mg/kg b.w.)?
A: The Linear probit was 3.6051.

Q: And the Linear response % ([2]; dose 0.3 mg/kg b.w.)?
A: Its Linear response % is 8.159%.

Q: What about the Mortality% ([2]; dose 0.6 mg/kg b.w.) of the same molecule?
A: Its Mortality% is 25%.

Q: What about the Observed response % ([2]; dose 0.6 mg/kg b.w., probit analysis) of the same molecule?
A: Its Observed response % is 14.286%.

Q: And the Linear probit ([2]; dose 0.6 mg/kg b.w.)?
A: Its Linear probit is 4.1699.

Q: And the Linear response % ([2]; dose 0.6 mg/kg b.w.)?
A: The Linear response % was 20.3258%.

Q: What about the Dead ([2]; dose 0.9 mg/kg b.w.) of the same molecule?
A: Its Dead is 3.

Q: What about the Mortality% ([2]; dose 0.9 mg/kg b.w.) of the same molecule?
A: Its Mortality% is 37.5%.

Q: And the Observed response % ([2]; dose 0.9 mg/kg b.w., probit analysis)?
A: The Observed response % was 28.571%.

Q: What about the Linear probit ([2]; dose 0.9 mg/kg b.w.) of the same molecule?
A: The Linear probit was 4.5.

Q: What about the Linear response % ([2]; dose 0.9 mg/kg b.w.) of the same molecule?
A: The Linear response % was 30.855%.

Q: And the Dead ([2]; dose 1.1 mg/kg b.w.)?
A: Its Dead is 3.

Q: What about the Mortality% ([2]; dose 1.1 mg/kg b.w.) of the same molecule?
A: The Mortality% was 37.5%.

Q: And the Observed response % ([2]; dose 1.1 mg/kg b.w., probit analysis)?
A: The Observed response % was 28.571%.

Q: What about the Linear probit ([2]; dose 1.1 mg/kg b.w.) of the same molecule?
A: Its Linear probit is 4.6635.

Q: And the Linear response % ([2]; dose 1.1 mg/kg b.w.)?
A: Its Linear response % is 36.8278%.

Q: What about the Dead ([2]; dose 1.2 mg/kg b.w.) of the same molecule?
A: The Dead was 4.

Q: What about the Mortality% ([2]; dose 1.2 mg/kg b.w.) of the same molecule?
A: The Mortality% was 50%.

Q: And the Observed response % ([2]; dose 1.2 mg/kg b.w., probit analysis)?
A: Its Observed response % is 42.857%.

Q: And the Linear probit ([2]; dose 1.2 mg/kg b.w.)?
A: Its Linear probit is 4.7344.

Q: And the Linear response % ([2]; dose 1.2 mg/kg b.w.)?
A: Its Linear response % is 39.5276%.

Q: What about the Dead ([2]; dose 1.4 mg/kg b.w.) of the same molecule?
A: The Dead was 4.

Q: And the Mortality% ([2]; dose 1.4 mg/kg b.w.)?
A: The Mortality% was 50%.

Q: What about the Observed response % ([2]; dose 1.4 mg/kg b.w., probit analysis) of the same molecule?
A: Its Observed response % is 42.857%.

Q: And the Linear probit ([2]; dose 1.4 mg/kg b.w.)?
A: Its Linear probit is 4.8599.

Q: What about the Linear response % ([2]; dose 1.4 mg/kg b.w.) of the same molecule?
A: The Linear response % was 44.4304%.

Q: What about the Dead ([2]; dose 1.8 mg/kg b.w.) of the same molecule?
A: Its Dead is 5.

Q: And the Mortality% ([2]; dose 1.8 mg/kg b.w.)?
A: Its Mortality% is 62.5%.

Q: What about the Observed response % ([2]; dose 1.8 mg/kg b.w., probit analysis) of the same molecule?
A: The Observed response % was 57.143%.

Q: What about the Linear probit ([2]; dose 1.8 mg/kg b.w.) of the same molecule?
A: The Linear probit was 5.0647.

Q: What about the Linear response % ([2]; dose 1.8 mg/kg b.w.) of the same molecule?
A: Its Linear response % is 52.578%.

Q: And the Mortality% ([2]; dose 2.2 mg/kg b.w.)?
A: Its Mortality% is 62.5%.

Q: What about the Observed response % ([2]; dose 2.2 mg/kg b.w., probit analysis) of the same molecule?
A: Its Observed response % is 57.143%.

Q: What about the Linear probit ([2]; dose 2.2 mg/kg b.w.) of the same molecule?
A: The Linear probit was 5.2281.

Q: What about the Linear response % ([2]; dose 2.2 mg/kg b.w.) of the same molecule?
A: The Linear response % was 59.022%.

Q: And the Dead ([2]; dose 2.8 mg/kg b.w.)?
A: The Dead was 8.

Q: And the Mortality% ([2]; dose 2.8 mg/kg b.w.)?
A: The Mortality% was 100%.

Q: And the Observed response % ([2]; dose 2.8 mg/kg b.w., probit analysis)?
A: Its Observed response % is 71.429%.

Q: And the Linear probit ([2]; dose 2.8 mg/kg b.w.)?
A: The Linear probit was 5.4246.

Q: And the Linear response % ([2]; dose 2.8 mg/kg b.w.)?
A: Its Linear response % is 66.4427%.

Q: What about the LD25 [2, 3] of the same molecule?
A: The LD25 was 0.7264 mg/kg.

Q: And the LD50 [2, 3]?
A: Its LD50 is 1.6626 mg/kg.

Q: What about the LD75 [2, 3] of the same molecule?
A: The LD75 was 3.8056 mg/kg.

Q: What about the LD90 [2, 3] of the same molecule?
A: Its LD90 is 8.0187 mg/kg.

Q: What about the LD95 [2, 3] of the same molecule?
A: Its LD95 is 12.5257 mg/kg.

Q: What about the LD99 [2, 3] of the same molecule?
A: Its LD99 is 28.9136 mg/kg.

Q: And the “LT25, Time” value [2, 3]?
A: The value was 2.187 days.

Q: What about the “LT50, Time” value [2, 3] of the same molecule?
A: The value was 4.03 days.

Q: And the “LT75, Time” value [2, 3]?
A: Its value is 7.426 days.

Q: What about the “LT90, Time” value [2, 3] of the same molecule?
A: The value was 12.87 days.

Q: What about the “LT95, Time” value [2, 3] of the same molecule?
A: The value was 17.89 days.

Q: What about the “LT99, Time” value [2, 3] of the same molecule?
A: Its value is 33.17 days.

Q: And the LD50 ([2]; male wild rats, probit analysis software, listed as bromadiolone)?
A: The LD50 was 1.6 mg/kg.

Q: And the Observed response % ([2]; time 1 day)?
A: The Observed response % was 12.5%.

Q: What about the Linear probit ([2]; time 1 day) of the same molecule?
A: Its Linear probit is 3.4617.

Q: And the Linear response % ([2]; time 1 day)?
A: The Linear response % was 6.209%.

Q: And the Observed response % ([2]; time 2 days)?
A: Its Observed response % is 12.5%.

Q: And the Linear probit ([2]; time 2 days)?
A: Its Linear probit is 4.2266.

Q: What about the Linear response % ([2]; time 2 days) of the same molecule?
A: Its Linear response % is 21.9652%.

Q: And the Observed response % ([2]; time 3 days)?
A: Its Observed response % is 37.5%.

Q: What about the Linear probit ([2]; time 3 days) of the same molecule?
A: Its Linear probit is 4.6741.

Q: And the Linear response % ([2]; time 3 days)?
A: The Linear response % was 37.2284%.

Q: And the Observed response % ([2]; time 4 days)?
A: The Observed response % was 50%.

Q: What about the Linear probit ([2]; time 4 days) of the same molecule?
A: The Linear probit was 4.9918.

Q: And the Linear response % ([2]; time 4 days)?
A: Its Linear response % is 49.6729%.

Q: What about the Linear probit ([2]; time 5 days) of the same molecule?
A: Its Linear probit is 5.2381.

Q: What about the Linear response % ([2]; time 5 days) of the same molecule?
A: Its Linear response % is 59.4089%.

Q: What about the Observed response % ([2]; time 7 days) of the same molecule?
A: The Observed response % was 87.5%.

Q: And the Linear probit ([2]; time 7 days)?
A: Its Linear probit is 5.6093.

Q: And the Linear response % ([2]; time 7 days)?
A: Its Linear response % is 72.8843%.

Q: What about the “increase in p21 level compared to the control” value (p21) of the same molecule?
A: Its value is 96.65%.

Reference: publication PMC12689647, “Evaluation of bromadiolone combined with ciprofloxacin, vitamin D, aspirin, and cinnamon as an apoptosis-mediated rodenticide strategy” (Scientific Reports, 2025)
